The test has as its system HBV. Nature of the test: HBV-DNA Antiviral Assay Using HepG2.117 Cells (intracellular HBV DNA by qPCR). In kind it is cell-based, hepatitis B virus (genotype D). The conditions noted are these: Hepatitis B virus, HepG2.117. A digest of the protocol:
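Endpoint: qPCR copy number of intracellular HBV DNA after 3-day compound exposure, with inhibition set relative to the 2% DMSO control. The cells were doxycycline-free HepG2.117 carrying a Tet-off genotype D genome, dosed at nine 4-fold dilutions. A duplicate plate gave ATP-based viability (CC50).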
On the technique in general: Quantitative PCR measures a nucleic acid by following its amplification.
On to `COc1ccc(-n2c(C(=O)NCc3ccc(Cl)cc3)c3n(c2=O)CCN(C(=O)c2ccc(Br)c(Cl)c2)C3)cc1` [Example 139, 7-(4-bromo-3-chloro-benozyl)-N-[(4-chlorophenyl)methyl]-2-(4-methoxyphenyl)-3-oxo-6,8-dihydro-5H-imidazo[1,5-a]pyrazine-1-carboxamide], for which the EC50 – broadly, the concentration giving half of the maximal effect – was in the range of 100 to 500 nM.

Compound `COc1ccc(CN2CCCCn3c(c4n(c3=O)CCN(C(=O)c3ccc(Br)c(Cl)c3)C4)C2=O)cc1` [Example 135, 4-(4-bromo-3-chloro-benzoyl)-14-[(4-methoxyphenyl)methyl]-4,7,9,14-tetrazatricyclo[7.6.0.0^2,7]pentadec-1-ene-8.15-dione] had an EC50 of 500 to 5000 nM. Compound `COc1ccc(-n2c(C(=O)N[C@@H](c3ccccc3)C3CC3)c3n(c2=O)CCN(C(=O)c2ccc(Br)c(Cl)c2)C3)cc1` (racemic) [Example 149, 7-(4-bromo-3-chloro-benzoyl)-2-(4-methoxyphenyl)-3-oxo-N-[rac-(R)-cyclopropyl(phenyl)methyl]-6,8-dihydro-5H-imidazo[1,5-a]pyrazine-1-carboxamide] displayed an EC50 of 500 to 5000 nM.

For the compound `O=C(NCc1ccccc1)c1c2n(c(=O)n1-c1ccc(N3CCC3=O)cc1)CCN(C(=O)c1ccc(Br)c(Cl)c1)C2` [Example 419, N-benzyl-7-(4-bromo-3-chloro-benzoyl)-3-oxo-2-[4-(2-oxoazetidin-1-yl)phenyl]-6,8-dihydro-5H-imidazo[1,5-a]pyrazine-1-carboxamide], the EC50 was in the range of 500 to 5000 nM. The same measure for `C[C@H](NC(=O)c1c2n(c(=O)n1-c1ccc(OC3CC3)cc1)CCN(C(=O)c1ccc(Br)c(Cl)c1)C2)c1ccc(OC2COC2)cc1F` (stereo in doubt) [Example 347, 7-(4-bromo-3-chloro-benzoyl)-2-[4-(cyclopropoxy)phenyl]-3-oxo-N-[rac-(1S)-1-[2-fluoro-4-(oxetan-3-yloxy)phenyl]ethyl]-6,8-dihydro-5H-imidazo[1,5-a]pyrazine-1-carboxamide]: 100 to 500 nM; for `COc1ccc(-n2c(-c3ncc(Cc4ccccc4)o3)c3n(c2=O)CCN(C(=O)c2ccc(Br)c(Cl)c2)C3)cc1` [Example 86]: 500 to 5000 nM; for `C[C@H](NC(=O)c1c2n(c(=O)n1-c1ccc(OCC(F)(F)F)cc1)CCN(C(=O)c1ccc(Br)c(Cl)c1)C2)c1ccc(OCC#N)cc1F` (stereo in doubt) [Example 345, 7-(4-bromo-3-chloro-benzoyl)-3-oxo-N-[rac-(1S)-1-[4-(cyanomethoxy)-2-fluoro-phenyl]ethyl]-2-[4-(2,2,2-trifluoroethoxy)phenyl]-6,8-dihydro-5H-imidazo[1,5-a]pyrazine-1-carboxamide]: 100 to 500 nM. In the case of `O=C1COc2ccc(CNC(=O)c3c4n(c(=O)n3-c3ccc(OC5CC5)cc3)CCN(C(=O)c3ccc(Br)c(Cl)c3)C4)cc2N1` [Example 431, 7-(4-bromo-3-chloro-benzoyl)-2-[4-(cyclopropoxy)phenyl]-3-oxo-N-[(3-oxo-4H-1,4-benzoxazin-6-yl)methyl]-6,8-dihydro-5H-imidazo[1,5-a]pyrazine-1-carboxamide], the half-maximal effective concentration (EC50) was in the range of 500 to 5000 nM. The same measure for `C[C@@H](NC(=O)c1c2n(c(=O)n1-c1ccc(OC3CCC3)cc1)CCN(C(=O)c1ccc(Br)c(Cl)c1)C2)c1ccccc1` (stereo in doubt) [Example 137, 7-(4-bromo-3-chloro-benzoyl)-2-[4-(cyclobutoxy)phenyl]-3-oxo-N-[rac-(1R)-1-phenylethyl]-6,8-dihydro-5H-imidazo[1,5-a]pyrazine-1-carboxamide]: 100 to 500 nM; for `C[C@H](NC(=O)c1c2n(c(=O)n1-c1ccc(OCC(F)(F)F)cc1)CCN(C(=O)c1ccc(Br)c(Cl)c1)C2)c1ccc(O[C@H](C)C(N)=O)cc1F` (stereo in doubt) [Example 361, 7-(4-bromo-3-chloro-benzoyl)-3-oxo-N-[rac-(1S)-1-[2-fluoro-4-[rac-(1R)-2-amino-1-methyl-2-oxo-ethoxy]phenyl]ethyl]-2-[4-(2,2,2-trifluoroethoxy)phenyl]-6,8-dihydro-5H-imidazo[1,5-a]pyrazine-1-carboxamide]: 100 to 500 nM; for `COc1ccc(-n2c(C(=O)NCc3ccc(OC(C)C)cc3)c3n(c2=O)CCN(C(=O)c2ccc(Br)c(Cl)c2)C3)cc1` [Example 156, 7-(4-bromo-3-chloro-benzoyl)-N-[(4-isopropoxyphenyl)methyl]-2-(4-methoxyphenyl)-3-oxo-6,8-dihydro-5H-imidazo[1,5-a]pyrazine-1-carboxamide]: 100 to 500 nM. As to `COc1ccc(CNC(=O)c2c3n(c(=O)n2-c2ccc(OC(C)C)cc2)CCN(C(=O)c2ccc(Br)c(Cl)c2)C3)c(F)c1` [Example 218, 7-(4-bromo-3-chloro-benzoyl)-N-[(2-fluoro-4-methoxy-phenyl)methyl]-2-(4-isopropoxyphenyl)-3-oxo-6,8-dihydro-5H-imdiazo[1,5-a]pyrazine-1-carboxamide], the EC50 was less than 100 nM. The same measure for `C[C@H]1Cn2c(c(C(=O)NCc3ccccc3-c3ncccn3)n(-c3ccc(OC4CC4)cc3)c2=O)CN1C(=O)c1ccc(Br)c(C#N)c1` (racemic) [Example 452, rac-(6S)-7-(4-bromo-3-cyano-benzoyl)-2-[4-(cyclopropoxy)phenyl]-6-methyl-3-oxo-N-[(2-pyrimidin-2-ylphenyl)methyl]-6,8-dihydro-5H-imidazo[1,5-a]pyrazine-1-carboxamide]: less than 100 nM; for `COc1ccc(-n2c(C(=O)NCc3ccc4occc4c3)c3n(c2=O)CCN(C(=O)c2ccc(Cl)c(Cl)c2)C3)cc1` [Example 66, N-(benzofuran-5-ylmethyl)-7-(3,4-dichlorobenzoyl)-2-(4-methoxyphenyl)-3-oxo-6,8-dihydro-5H-imidazo[1,5-a]pyrazine-1-carboxamide]: 500 to 5000 nM. Take `O=C(NCc1ccccc1-c1ncccn1)c1c2n(c(=O)n1-c1ccc(OC3CC3)cc1)CCN(C(=O)c1ccc(Br)c(Cl)c1)C2` [Example 376, 7-(4-bromo-3-chloro-benzoyl)-2-[4-(cyclopropoxy)phenyl]-3-oxo-N-[(2-pyrimidin-2-ylphenyl)methyl]-6,8-dihydro-5H-imidazo[1,5-a]pyrazine-1-carboxamide]: the EC50 is less than 100 nM. With `NS(=O)(=O)c1ccc(-n2c(C(=O)NCc3ccccc3)c3n(c2=O)CCN(C(=O)c2ccc(Br)c(Cl)c2)C3)cc1` [Example 71, N-benzyl-7-(4-bromo-3-chloro-benzoyl)-3-oxo-2-(4-sulfamoylphenyl)-6,8-dihydro-5H-imidazo[1,5-a]pyrazine-1-carboxamide] the figure was more than 5000 nM; with `C[C@@H](c1ccccc1)N1C[C@H](O)Cn2c(c3n(c2=O)CCN(C(=O)c2ccc(Br)c(Cl)c2)C3)C1=O` (stereo in doubt) [Example 238, (11SR)-4-(4-bromo-3-chloro-benzoyl)-11-hydroxy-13-[(1S)-1-phenylethyl]-4,7,9,13-tetrazatricyclo[7.5.0.0^2,7]tetradec-1-ene-8,14-dione], 100 to 500 nM; with `COc1ccc(-n2c(C(=O)NCc3cccc(C(N)=O)c3)c3n(c2=O)CCN(C(=O)c2ccc(Cl)c(Cl)c2)C3)cc1` [Example 126, N-[(3-carbamoylphenyl)methyl]-7-(3,4-dichlorobenzoyl)-2-(4-methoxyphenyl)-3-oxo-6,8-dihydro-5H-imidazo[1,5-a]pyrazine-1-carboxamide], more than 5000 nM. The compound `O=C(NCc1ccc(OC(F)(F)F)cc1F)c1c2n(c(=O)n1-c1ccc(OC3CC3)cc1)CCN(C(=O)c1ccc(Br)c(Cl)c1)C2` [Example 296, 7-(4-bromo-3-chloro-benzoyl)-2-[4-(cyclopropoxy)phenyl]-N-[[2-fluoro-4-(trifluoromethxoy)phenyl]methyl]-3-oxo-6,8-dihydro-5H-imidazo[1,5-a]pyrazine-1-carboxamide] returned an EC50 of 500 to 5000 nM. With `O=C(NCc1ccccc1)c1c2n(c(=O)n1-c1ccc(OC3CC3)cc1)CCN(C(=O)c1cc(Cl)c(Br)cc1F)C2` [Example 446, N-benzyl-7-(4-bromo-5-chloro-2-fluoro-benzoyl)-2-[4-(cyclopropoxy)phenyl]-3-oxo-6,8-dihydro-5H-imidazo[1,5-a]pyrazine-1-carboxamide] the figure was more than 5000 nM; with `O=C1CCc2cc(-n3c(C(=O)NCc4ccccc4)c4n(c3=O)CCN(C(=O)c3ccc(Br)c(Cl)c3)C4)ccc2N1` [Example 403, N-benzyl-7-(4-bromo-3-chloro-benzoyl)-3-oxo-2-(2-oxo-3,4-dihydro-1H-quinolin-6-yl)-6,8-dihydro-5H-imidazo[1,5-a]pyrazine-1-carboxamide], 500 to 5000 nM.

As for `Cc1cc2occc2cc1CNC(=O)c1c2n(c(=O)n1-c1ccc(OCC(F)(F)F)cc1)CCN(C(=O)c1ccc(Br)c(Cl)c1)C2` [Example 295, 7-(4-bromo-3-chloro-benzoyl)-N-[(6-methylbenzofuran-5-yl)methyl]-3-oxo-2-[4-(2,2,2-trifluoroethoxy)phenyl]-6,8-dihydro-5H-imidazo[1,5-a]pyrazine-1-carboxamide], the EC50 is 100 to 500 nM. With `COc1ccc(-n2c(C(=O)NCc3ccccc3)c3n(c2=O)CCN(C(=O)c2cc4c(Cl)cccc4[nH]2)C3)cc1` [Example 56, N-benzyl-7-(4-chloro-1H-indole-2-carbonyl)-2-(4-methoxyphenyl)-3-oxo-6,8-dihydro-H-imidazo[1,5-a]pyrazine-1-carboxamide] the figure was 100 to 500 nM; with `C[C@H](Oc1ccc([C@H](C)NC(=O)c2c3n(c(=O)n2-c2ccc(OC4CC4)cc2)CCN(C(=O)c2ccc(Br)c(Cl)c2)C3)c(F)c1)C(N)=O` (stereo in doubt) [Example 358, 7-(4-bromo-3-chloro-benzoyl)-2-[4-(cyclopropoxy)phenyl]-3-oxo-N-[rac-(1S)-1-[2-fluoro-4-[rac-(1S)-2-amino-1-methyl-2-oxo-ethoxy]phenyl]ethyl]-6,8-dihydro-5H-imidazo[1,5-a]pyrazine-1-carboxamide], less than 100 nM.

The values above are taken from US11591341B2 (ALIGOS THERAPEUTICS, INC., priority 2019, dated 2023).
